Assay results as given in paper PMC10254193, “Early Molecular Insights into Thanatin Analogues Binding to A. baumannii LptA” (Molecules, 2023).
In brackets after ≈: the same amount, converted by molar mass. Bridge positions count the residues as written; N and C are the ends. Square brackets hold non-standard residues; d marks the D form. Peptide text beside a SMILES is read from it. Hyp = O=C(O)[C@@H]1C[C@@H](O)CN1; Pen = CC(C)(S)[C@H](N)C(=O)O; dDab = NCC[C@@H](N)C(=O)O; Nle = CCCC[C@H](N)C(=O)O; Dab = NCC[C@H](N)C(=O)O

T1: A. baumannii LptAm2.0 (LptAm(Ab)2.0) (A. baumannii ATCC 17978, UniProt V5VEZ9 33-159)
T1 construct: LptA of A. baumannii ATCC 17978, L33 to G159: as LptAm(Ab)1.0 with a further 5-residue truncation at the C-terminus; source: E. coli BL21(DE3), purified (two-step NiNTA with TEV cleavage); not shown: GB1 (protein G B1 domain), N-terminal, cleaved; His tag, N-terminal, cleaved
T1 sequence: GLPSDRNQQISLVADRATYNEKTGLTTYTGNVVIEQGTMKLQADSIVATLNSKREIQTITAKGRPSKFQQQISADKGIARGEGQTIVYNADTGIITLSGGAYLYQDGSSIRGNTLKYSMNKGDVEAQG


Columns and labels:
P. aeruginosa ATCC 27853 = assay type: cell-based
Source text: Table 1 LptA sequence identity to E. coli and MIC values (µg/mL). | column: P. aeruginosa ATCC 27853

E. coli ATCC 25922 = assay type: cell-based
Source text: Table 1 LptA sequence identity to E. coli and MIC values (µg/mL). | column: E. coli ATCC 25922

A. baumannii DSM 30008 = assay type: cell-based
Source text: Table 1 LptA sequence identity to E. coli and MIC values (µg/mL). | column: A. baumannii DSM 30008

K. pneumoniae ATCC 43816 = assay type: cell-based
Source text: Table 1 LptA sequence identity to E. coli and MIC values (µg/mL). | column: K. pneumoniae ATCC 43816

LptAm(Ab)2.0 [1] = assay: Fluorescence polarization competition (indirect) binding assay, displacement of than-FL; design: species or system A. baumannii; conditions: competition FP, than-FL 10 µM, triplicate; for IC50: 1:1 LptAm(Ab)2.0 and than-FL, FP buffer pH 7, overnight 4 °C, read at 25 °C, read-out: IC50 ± 95CI; for Ki: from IC50 and KD of than-FL by Cheng–Prusoff equation, read-out: KI ± 95CI
Procedure: The dissociation constant (KD) of than-FL was first determined in a direct binding assay and measured as 3.7 ± 0.5 µM (Figure 5, left) (Table 3). Subsequently, competitive binding assays were performed to determine the inhibition constants (KIs) of the unlabeled thanatin derivatives 1, 2, 5, 6, and 7. For each thanatin derivative tested, a serial dilution was prepared in triplicate on a single 96-well plate, to which a 1:1 mixture of LptAm(Ab)2.0 and than-FL was added. […] Determination of the KIs was achieved from the empirically derived IC50 values and KD of than-FL using the Cheng–Prusoff equation [27].
Protein stocks were purified and concentrated in SEC buffer (50 mM NaPi pH 7, 150 mM NaCl), and if necessary diluted to the desired concentration using FP buffer (50 mM NaPi pH 7, 150 mM NaCl, 0.05% Tween20). Peptide stocks and fluorescently labeled peptide stocks were made in FP buffer. A 1:1 serial dilution of 24 wells was prepared first by adding 100 µL of the unlabeled protein (e.g., LptAm(Ab)2.0) or peptide (e.g., 1, 2, 5–7), starting at high concentrations, 100–500 µM, in well one. Then, 50 µL was taken from the first well and added to 50 µL of FP buffer in the subsequent well, homogenized and repeated for the remaining of the 24-well series. Then, 50 µL of 2x stock of the fluorescently labeled thanatin (than-FL) was added to the dilution series. For the direct binding assays, 10 µM than-FL was used as the 2x stock, and for the indirect binding assays, a 1:1 mixture of 20 µM Lpt protein variant and 20 µM than-FL was used as the 2x stock; the final working concentrations of the than-FL were 5 µM and 10 µM, respectively. Plates were left to incubate overnight at 4 °C before fluorescence polarization (FP) measurements. Anisotropy was measured using the Tecan Safire^2 plate reader using a 10 nm bandwidth and setting the excitation and emission wavelengths to 635 nm and 670 nm, respectively. The G-factor (G) was also determined empirically as 1.094 for the instrument and included in all the anisotropy calculations.
For the indirect binding assays, r was calculated in the same manner as the direct binding assays. To control for non-specific binding between than-FL and competitors, than-FL alone was added to a replicate dilution series of the unlabeled peptide on the same plate. The control was subtracted from r to yield r’. Data were fit to a sigmoidal interpolation model on GraphPad Prism 9, and an IC50 was generated for each unlabeled peptide or protein measured. The inhibition constants (Kis) were calculated using the Cheng–Prusoff equation, Ki=IC50×1+LT/KD^−1 , in which the total concentration of than-FL (LT) was used as well as the KD previously derived from the peptide’s cognate direct binding assay.

LptAm(Ab)2.0 [2] = assay: Fluorescence polarization direct binding assay; design: species or system A. baumannii; conditions: direct FP, than-FL 5 µM, LptAm(Ab)2.0 serial dilution, FP buffer 50 mM NaPi pH 7, 150 mM NaCl, 0.05% Tween20, overnight 4 °C, read at 25 °C, triplicate; read-out: KD ± 95CI
Source text: As previously mentioned, a second A. baumannii LptA protein construct (LptAm(Ab)2.0), truncated at G159 of the C-terminus had improved monomeric behavior in solution and was used for binding affinity assays. The protein underwent routine checks for purity via a Coomassie-stained SDS-PAGE (Figure S1), and its binding to 7 in a titration series was observed using analytical SEC (Figure 2B), before proceeding with fluorescence polarization (FP). The fluorescent label, Alexa647, was conjugated to thanatin at the first position, as described in [24]. […]
Protein stocks were purified and concentrated in SEC buffer (50 mM NaPi pH 7, 150 mM NaCl), and if necessary diluted to the desired concentration using FP buffer (50 mM NaPi pH 7, 150 mM NaCl, 0.05% Tween20). […] Plates were left to incubate overnight at 4 °C before fluorescence polarization (FP) measurements. Anisotropy was measured using the Tecan Safire^2 plate reader using a 10 nm bandwidth and setting the excitation and emission wavelengths to 635 nm and 670 nm, respectively. The G-factor (G) was also determined empirically as 1.094 for the instrument and included in all the anisotropy calculations.
For direct binding assays, fluorescence anisotropy (r) was calculated using the parallel and perpendicular polarized intensities using the equation r=I∥−I⊥∗G/I∥+2I⊥∗G . […]

[3] = target: T1, A. baumannii LptAm2.0 (LptAm(Ab)2.0); assay: fluorescence polarisation; competition: unlabeled peptide serially diluted, 1:1 mixture of LptAm(Ab)2.0 and than-FL added (than-FL 10 µM final); 50 mM NaPi pH 7, 150 mM NaCl, 0.05% Tween20; KI from IC50 by the Cheng-Prusoff equation; conditions: both partners purified
[4] = target: than-FL (fluorescently labeled thanatin, Alexa647); assay: fluorescence polarisation; direct binding: LptAm(Ab)2.0 serially diluted, than-FL 5 µM; 50 mM NaPi pH 7, 150 mM NaCl, 0.05% Tween20; incubated overnight at 4 °C, executed at ambient temperature (25 °C); One site - Total fit

Row | Molecule | MIC (P. aeruginosa ATCC 27853) | MIC (E. coli ATCC 25922) | MIC (A. baumannii DSM 30008) | MIC (K. pneumoniae ATCC 43816) | IC50 (LptAm(Ab)2.0 [1]) | Ki (LptAm(Ab)2.0 [1]) | Kd (LptAm(Ab)2.0 [2]) | IC50 [3] | Ki [3] | Kd [4]
1 | CCCC[C@H](NC(=O)[C@H](CCCNC(=N)N)NC(=O)[C@H](CCN)NC(=O)[C@@H]1CSSC[C@H](NC(=O)[C@H](Cc2ccc(O)cc2)NC(=O)[C@@H](NC(=O)[C@@H](NC(=O)[C@@H]2CCCN2C(=O)[C@@H](NC(=O)[C@@H]2CCCN2C(=O)[C@H](CCCCN)NC(=O)[C@@H](N)CCCCN)C(C)C)[C@@H](C)CC)[C@@H](C)CC)C(=O)N[C@@H](CC(N)=O)C(=O)N[C@@H](CCCNC(=N)N)C(=O)N[C@@H](CCCNC(=N)N)C(=O)N[C@@H]([C@@H](C)O)C(=O)NCC(=O)N[C@@H](CCCCN)C(=O)N1)C(=O)O [Peptide 1] (H-KKPVPIIYCNRRTGKC[Dab]R[Nle]-OH; disulfide 9-16) | >64 µg/mL | 0.063 µg/mL (≈ 0.0281 µM) | >32 µg/mL | 0.250 µg/mL (≈ 0.111 µM) |  |  |  |  |  | 
2 | CC[C@H](C)[C@H](NC(=O)[C@@H](NC(=O)[C@@H]1CCCN1C(=O)[C@@H](NC(=O)[C@@H]1CCCN1C(=O)[C@H](CCCCN)NC(=O)[C@@H](N)CCCCN)C(C)C)[C@@H](C)CC)C(=O)N[C@@H](Cc1ccc(O)cc1)C(=O)N[C@@H]1C(=O)N[C@@H](CC(N)=O)C(=O)N[C@@H](CCCNC(=N)N)C(=O)N[C@@H](CCN)C(=O)N[C@@H]([C@@H](C)O)C(=O)N[C@H](CCN)C(=O)N[C@@H](CCCCN)C(=O)N[C@H](C(=O)N[C@@H](CCN)C(=O)N[C@@H](CCCNC(=N)N)C(=O)N[C@@H](Cc2ccc(O)cc2)C(=O)O)CSSC1(C)C [Peptide 2] (H-KKPVPIIY[Pen]NR[Dab]T[dDab]KC[Dab]RY-OH; disulfide 9-16; N-terminus and C-terminus assumed) | >32 µg/mL | 0.031 µg/mL (≈ 0.0134 µM) | >32 µg/mL | 0.125 µg/mL (≈ 0.0541 µM) | 24.1 ± 6.3 µM | 6.5 ± 1.7 µM |  |  |  | 
3 | CC[C@H](C)[C@H](NC(=O)[C@@H](NC(=O)[C@@H]1C[C@@H](O)CN1C(=O)[C@@H](N)C(C)C)[C@@H](C)CC)C(=O)N[C@@H](Cc1ccc(O)cc1)C(=O)N[C@@H]1C(=O)N[C@@H](CC(N)=O)C(=O)N[C@@H](CCCNC(=N)N)C(=O)N[C@@H](CCN)C(=O)N[C@@H]([C@@H](C)O)C(=O)N[C@H](CCN)C(=O)N[C@@H](CCCCN)C(=O)N[C@H](C(=O)N[C@@H](CCN)C(=O)N[C@@H](CCN)C(=O)N[C@@H](Cc2ccc(O)cc2)C(=O)O)CSSC1(C)C [Peptide 5] (H-V[Hyp]IIY[Pen]NR[Dab]T[dDab]KC[Dab][Dab]Y-OH; disulfide 6-13; N-terminus and C-terminus assumed) | >32 µg/mL | 0.063 µg/mL (≈ 0.0329 µM) | >32 µg/mL | 0.250 µg/mL (≈ 0.131 µM) | 11.5 ± 0.7 µM | 3.1 ± 0.2 µM |  |  |  | 
4 | CC[C@H](C)[C@H](NC(=O)[C@@H]1C[C@@H](O)CN1C(=O)[C@@H](N)C(C)C)C(=O)N[C@H](C(=O)N[C@@H](Cc1ccc(O)cc1)C(=O)N[C@@H]1C(=O)N[C@@H](CC(N)=O)C(=O)N[C@@H](CCCNC(=N)N)C(=O)N[C@@H](CCN)C(=O)N[C@@H]([C@@H](C)O)C(=O)N[C@H](CCN)C(=O)N[C@@H](CCCCN)C(=O)N[C@H](C(=O)N[C@@H](CCN)C(=O)N[C@@H](CCCNC(=N)N)C(=O)N[C@@H](Cc2ccc(O)cc2)C(=O)O)CSSC1(C)C)[C@@H](C)O [Peptide 6] (H-V[Hyp]ITY[Pen]NR[Dab]T[dDab]KC[Dab]RY-OH; disulfide 6-13; N-terminus and C-terminus assumed) | >32 µg/mL | 0.125 µg/mL (≈ 0.0638 µM) | >32 µg/mL | 0.250 µg/mL (≈ 0.128 µM) | 15.4 ± 1.3 µM | 4.1 ± 0.4 µM |  |  |  | 
5 | Than-FL: fluorescently labeled thanatin, Alexa647 conjugated at the first position; reporter in all FP assays |  |  |  |  |  |  | 3.7 ± 0.5 µM |  |  | 
6 | GSKKPVPIIYCNRRTGKCQRM (thanatin, the naturally occurring 21-mer; positions 1′-21′; also called native thanatin) [Thanatin] |  |  |  |  |  |  |  | 11.8 µM | 3.2 µM | 
7 | A. baumannii LptAm2.0 (LptAm(Ab)2.0) (domain or fragment) GLPSDRNQQISLVADRATYNEKTGLTTYTGNVVIEQGTMKLQADSIVATLNSKREIQTITAKGRPSKFQQQISADKGIARGEGQTIVYNADTGIITLSGGAYLYQDGSSIRGNTLKYSMNKGDVEAQG |  |  |  |  |  |  |  |  |  | 3.7 µM
